System: IL-1β secretion, THP-1 cells
Assay: IL-1β secretion assay in PMA-differentiated THP-1 cells (LPS + nigericin stimulation, IL-1β ELISA)
Assay type: cell-based
Details: LPS 25 ng/mL, IL-1β by ELISA
Protocol: Compounds as provided herein were tested in the following assay. Cell culture medium employed contained RPMI 1640 medium (89%), FBS (10%), Pen/Strep (1%), and 2-mercaptoethanol (0.05 mm). Freezing medium was made up of 90% FBS and 10% DMSO. THP-1 cells were removed from the liquid nitrogen and placed into a 37° C. water bath to thaw, until signs of ice dissipated. The cells were then added to 9 mL of warm cell culture medium and centrifuged for 5 minutes at 1000 rpm. The supernatant was discarded, and the cells were resuspended in new cell culture medium. THP-1 cells were then split and cultured in the cell culture medium, being passaged every 2-3 days with the cell density will be maintained between 5×10^5 and 1.5×10^6 viable cells/mL.
Procedure for […], Secretion Assay in 384-Well Plates
PMA was dissolved in DMSO to make a stock solution at 5 mg/mL and stored in 10 μl aliquots at −20° C. for single use. PMA is added to normal growth medium. LPS was diluted with 1 mL of water solution to provide a 1 mg/mL stock solution and stored in 15 μl aliquots at −20° C. for single use. Nigericin is diluted in ice cold 100% ethanol to 5 mg/mL (6.7 mM) and stored in 75 μL aliquots at −20° C. for single use. Serum-free media contains RPMI 1640 medium (99%), Pen/Strep (1%), and 2-mercaptoethanol (0.05 mM). The two control conditions used to qualify and normalize test compound dose-response curves were as follows: High Control=25 ng/mL LPS, 5 μM Nigericin, 0.5% DMSO, Low Control=25 ng/mL, LPS, 0.5% DMSO.
THP-1 cells were diluted to provide a suspension at a concentration of 1.0×10^6 cells/mL with the total volume of suspension required to enable the desired number of assay plates. The growth media was supplemented with PMA (5 ng/mL final concentration) and the cells were incubated at 37° C. under a humidified atmosphere of 5% CO2 for 40 h.
All media was carefully aspirated from each culture flask. The cells were washed carefully with 1×DPBS. The cells were then briefly digested with trypsin LE for 5 minutes at 23° C. and immediately resuspended in cell growth media. After resuspension, the cells were centrifuged at 1000 rpm for 3 minutes and the supernatant was discarded. The cells were resuspended in DPBS and once again centrifuged at 1000 rpm for 5 minutes. The supernatant was discarded and the cell pellet was resuspended in serum-free media supplemented with LPS (25 ng/mL final concentration) to enable the distribution of 30K THP-1 cells within 45 μL of media into each well of 384-well PDL-coated plates. The 384-well plates were then incubated at 37° C. under a humidified atmosphere of 5% CO2 for 2 h. Following this period, test compounds were dispensed by Tecan across the desired concentration range with all wells normalized to a final 0.5% DMSO concentration. The plates were then incubated at 37° C. under a humidified atmosphere of 5% CO2 for 1 h. Following this period, 5 μL of the 5 mg/mL nigericin stock solution was added to each of the appropriate wells and plates were centrifuged at 1000 rpm for 30 seconds. The plates were the immediately reintroduced to the incubator at 37° C. under a humidified atmosphere of 5% CO2 for 2 h. After this time, 35 μL/well of supernatant was collected and transferred into v-bottom plate and centrifuged at 1000 rpm for 1 minute. These supernatant aliquots were analyzed using an IL-Iβ detection kit as described below. If needed, the test samples could be snap frozen and stored at −80° C. until analyzed.
To prepare each ELISA plate, capture antibody (mAb Mt175) was diluted with PBS to a final concentration of 2 μg/mL and then 20 μL of this solution was added to each well of the ELISA plate. Each plate was allowed to incubate overnight at 4° C. The next day, the capture antibody solution was removed and discarded. Each ELISA plate was washed 4 times with PBST followed by the addition of 25 μL/well of blocking buffer (Licor-927-40010) supplemented with 0.1% Tween 20. […]

[1] = Homo sapiens, THP-1, class symbol
[2] = Homo sapiens, THP-1, numeric value

| SMILES | IC50 [1] | IC50 [2] | IC50 (class symbol) | IC50 (numeric value) |
| --- | --- | --- | --- | --- |
| O=C(CN1C(=O)c2ccc(C(F)(F)F)c(F)c2C2(CC2)C1=O)Nc1ncc(F)cn1 [Example 16, 2-[5′-fluoro-1′,3′-dioxo-6′-(trifluoromethyl)spiro[cyclopropane-1,4′-isoquinoline]-2′-yl]-N-(5-fluoropyrimidin-2-yl)acetamide] | < 10 µM | 0.918 µM | – | – |
| O=C(CN1C(=O)c2ccc(C(F)(F)F)cc2C2(CC2)C1=O)Nc1ncc(F)cn1 [Example 15, 2-[1′,3′-dioxo-6′-(trifluoromethyl)spiro[cyclopropane-1,4′-isoquinoline]-2′-yl]-N-(5-fluoropyrimidin-2-yl)acetamide] | < 10 µM | 0.893 µM | – | – |
| O=C(CN1C(=O)c2ccc(Br)cc2C2(CCCC2)C1=O)Nc1ncc(F)cn1 [Example 12, 2-(6′-bromo-1′,3′-dioxospiro[cyclopentane-1,4′-isoquinoline]-2′-yl)-N-(5-fluoropyrimidin-2-yl)acetamide] | < 10 µM | 1.36 µM | – | – |
| Cc1cnc(NC(=O)CN2C(=O)c3ccc(Br)c(F)c3C3(CC3)C2=O)nc1 [Example 20, 2-(6′-bromo-5′-fluoro-1′,3′-dioxospiro[cyclopropane-1,4′-isoquinoline]-2′-yl)-N-(5-methylpyrimidin-2-yl)acetamide] | < 10 µM | 0.261 µM | – | – |
| N#Cc1cnc(NC(=O)CN2C(=O)c3ccc(Br)cc3C3(CC3)C2=O)nc1 [Example 31, 2-(6′-bromo-1′,3′-dioxospiro[cyclopropane-1,4′-isoquinoline]-2′-yl)-N-(5-cyanopyrimidin-2-yl)acetamide] | < 10 µM | 0.208 µM | – | – |
| O=C(CN1C(=O)c2ccc(Br)cc2C2(CC2)C1=O)Nc1ncc(Cl)cn1 [Example 32, 2-(6′-bromo-1′,3′-dioxospiro[cyclopropane-1,4′-isoquinoline]-2′-yl)-N-(5-chloropyrimidin-2-yl)acetamide] | < 10 µM | 0.137 µM | – | – |
| O=C(CN1C(=O)c2ccc(Br)c(F)c2C2(CC2)C1=O)Nc1ncc2cn[nH]c2n1 [Example 24, 2-(6′-bromo-5′-fluoro-1′,3′-dioxospiro[cyclopropane-1,4′-isoquinoline]-2′-yl)-N-(1H-pyrazolo[3,4-d]pyrimidin-6-yl)acetamide] | < 10 µM | 0.088 µM | – | – |

The remaining lines, values ahead:

| IC50 [1] | IC50 [2] | IC50 (class symbol) | IC50 (numeric value) | SMILES |
| --- | --- | --- | --- | --- |
| – | – | < 10 µM | 6.66 µM | C[C@H]1C[C@@]12C(=O)N(CC(=O)Nc1ncc(F)cn1)C(=O)c1ccc(Br)cc12 (single isomer, unassigned) [Example 14, N-(5-fluoropyrimidin-2-yl)-2-[(1r,2s)-6′-bromo-2-methyl-1′,3′-dioxospiro[cyclopropane-1,4′-isoquinoline]-2′-yl]acetamide] |
| < 10 µM | 0.391 µM | – | – | CC1CC12C(=O)N(CC(=O)Nc1ncc(F)cn1)C(=O)c1ccc(Br)cc12 (stereo not shown) [Example 25, 2-(6′-bromo-2-methyl-1′,3′-dioxospiro[cyclopropane-1,4′-isoquinoline]-2′-yl)-N-(5-fluoropyrimidin-2-yl)acetamide] |
| < 10 µM | 2.4 µM | – | – | CC1(C(F)(F)F)C(=O)N(CC(=O)Nc2ncc(F)cn2)C(=O)c2ccc(Br)cc21 (stereo not shown) [Example 17, 2-[6-bromo-4-methyl-1,3-dioxo-4-(trifluoromethyl)isoquinolin-2-yl]-N-(5-fluoropyrimidin-2-yl)acetamide] |
| 10 to 15 µM | 13.1 µM | – | – | O=C(CN1C(=O)c2ccc(Br)cc2C2(CC(F)(F)C2)C1=O)Nc1ncc(F)cn1 [Example 10, 2-(6′-bromo-1,1-difluoro-1′,3′-dioxospiro[cyclobutane-3,4′-isoquinoline]-2′-yl)-N-(5-fluoropyrimidin-2-yl)acetamide] |

— patent US20240254132A1, “COMPOUNDS, COMPOSITIONS AND METHODS” (Denali Therapeutics Inc., priority 2021, published 2024)
